According to patent US8247211B2, “Glycopeptide antibiotics” (American Cyanamid Company, priority 2001, dated 2012):

Columns and labels:
Test in all cases: In vitro antibacterial evaluation: minimum inhibitory concentration (MIC), broth dilution method
Format in all cases: cell-based
Settings in all cases: 18 hours at 35° C.
Enterococcus sp. = tested on: Enterococcus sp.
In short: (§1)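 Using Muller-Hinton II […] and an inoculum of 5×10^5 CFU/mL, antibiotic dilutions from 64 down to 0.06 μg/mL were tested following NCCLS M7-A2. The MIC is the lowest concentration inhibiting growth, including in methicillin-, penicillin- or vancomycin-resistant clinical isolates.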

Escherichia coli = tested on: Escherichia coli
In short: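 First, organisms are seeded at 5×10^5 CFU/mL into Muller-Hinton II […]. Next, antibiotic is applied across 64-0.06 μg/mL by broth dilution (NCCLS M7-A2). Finally, the lowest inhibitory concentration is recorded as MIC.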

Staphylococcus sp. = tested on: Staphylococcus sp.
In short: as §1

Streptococcus sp. = tested on: Streptococcus sp.
In short: as §1

Substance: γ-O-[(Dodecylamino)carbonyl]-cyclo[glycyl-β-methylphenylalanyl-O-(4-O-hexopyranosylhexopyranosyl]tyrosyl-3-(2-iminoimidazolidin-4-yl)seryl-3-(3-hexopyranosyl-2-iminoimidazolidin-4-yl)serylseryl] [Example 254b]
- MIC Enterococcus avium (GC 4558) (Enterococcus sp.; Enterococcus avium (GC 4558)): 4 µg/mL
- MIC Enterococcus faecalis (ATCC 29212) (Enterococcus sp.; Enterococcus faecalis (ATCC 29212)): 8 µg/mL
- MIC Enterococcus faecalis (GC 2242) (Enterococcus sp.; Enterococcus faecalis (GC 2242)): 8 µg/mL
- MIC Enterococcus faecalis (GC 4552) (Enterococcus sp.; Enterococcus faecalis (GC 4552)): 8 µg/mL
- MIC Enterococcus faecalis (GC 4553) (Enterococcus sp.; Enterococcus faecalis (GC 4553)): 4 µg/mL
- MIC Enterococcus faecalis (GC 4554) (Enterococcus sp.; Enterococcus faecalis (GC 4554)): 4 µg/mL
- MIC Enterococcus faecium (GC 2243) (Enterococcus sp.; Enterococcus faecium (GC 2243)): 4 µg/mL
- MIC Enterococcus faecium (GC 4556) (Enterococcus sp.; Enterococcus faecium (GC 4556)): 8 µg/mL
- MIC Enterococcus faecium (GC 4557) (Enterococcus sp.; Enterococcus faecium (GC 4557)): 8 µg/mL
- MIC Enterococcus faecalis (ATCC 29212) (Enterococcus sp.; broth dilution, strain ATCC 29212): 8 µg/mL
- MIC Enterococcus faecalis (GC 2242) (Enterococcus sp.; broth dilution, strain GC 2242): 8 µg/mL
- MIC Enterococcus faecium (GC 2243) (Enterococcus sp.; broth dilution, strain GC 2243): 4 µg/mL
- MIC Enterococcus faecalis (GC 4552) (Enterococcus sp.; broth dilution, strain GC 4552): 8 µg/mL
- MIC Enterococcus faecalis (GC 4553) (Enterococcus sp.; broth dilution, strain GC 4553): 4 µg/mL
- MIC Enterococcus faecalis (GC 4554) (Enterococcus sp.; broth dilution, strain GC 4554): 4 µg/mL
- MIC Enterococcus faecium (GC 4556) (Enterococcus sp.; broth dilution, strain GC 4556): 8 µg/mL
- MIC Enterococcus faecium (GC 4557) (Enterococcus sp.; broth dilution, strain GC 4557): 8 µg/mL
- MIC Enterococcus avium (GC 4558) (Enterococcus sp.; broth dilution, strain GC 4558): 4 µg/mL
- MIC Escherichia coli (ATCC 25922) (Escherichia coli; Escherichia coli (ATCC 25922)): 64 µg/mL
- MIC Escherichia coli (GC 4559) (Escherichia coli; Escherichia coli (GC 4559)): 64 µg/mL
- MIC Escherichia coli (GC 4560) (Escherichia coli; Escherichia coli (GC 4560)): 16 µg/mL
- MIC Coagulase Negative Staphylococcus (GC 4547) (Staphylococcus sp.; Coagulase Negative Staphylococcus (GC 4547)): 8 µg/mL
- MIC Coagulase Negative Staphylococcus (GC 4548) (Staphylococcus sp.; Coagulase Negative Staphylococcus (GC 4548)): 2 µg/mL
- MIC Coagulase Negative Staphylococcus (GC 4549) (Staphylococcus sp.; Coagulase Negative Staphylococcus (GC 4549)): 4 µg/mL
- MIC Coagulase Negative Staphylococcus (GC 4551) (Staphylococcus sp.; Coagulase Negative Staphylococcus (GC 4551)): 4 µg/mL
- MIC Coagulase Negative Staphylococcus (ID-3941) (Staphylococcus sp.; Coagulase Negative Staphylococcus (ID-3941)): 2 µg/mL
- MIC Staphylococcus aureus (ATCC 29213) (Staphylococcus sp.; Staphylococcus aureus (ATCC 29213)): 8 µg/mL
- MIC Staphylococcus aureus (GC 1131) (Staphylococcus sp.; Staphylococcus aureus (GC 1131)): 4 µg/mL
- MIC Staphylococcus aureus (GC 4541) (Staphylococcus sp.; Staphylococcus aureus (GC 4541)): 4 µg/mL
- MIC Staphylococcus aureus (GC 4542) (Staphylococcus sp.; Staphylococcus aureus (GC 4542)): 8 µg/mL
- MIC Staphylococcus aureus (GC 4544) (Staphylococcus sp.; Staphylococcus aureus (GC 4544)): 8 µg/mL
- MIC Staphylococcus aureus (GC 4545) (Staphylococcus sp.; Staphylococcus aureus (GC 4545)): 8 µg/mL
- MIC Staphylococcus aureus-SMITH (GC 4543) (Staphylococcus sp.; Staphylococcus aureus-SMITH (GC 4543)): 4 µg/mL
- MIC Staphylococcus haemolyticus (GC 4546) (Staphylococcus sp.; Staphylococcus haemolyticus (GC 4546)): 8 µg/mL
- MIC Staphylococcus aureus (ATCC 29213) (Staphylococcus sp.; broth dilution, strain ATCC 29213): 8 µg/mL
- MIC Staphylococcus aureus (GC 1131) (Staphylococcus sp.; broth dilution, strain GC 1131): 4 µg/mL
- MIC Staphylococcus aureus (GC 4541) (Staphylococcus sp.; broth dilution, strain GC 4541): 4 µg/mL
- MIC Staphylococcus aureus (GC 4542) (Staphylococcus sp.; broth dilution, strain GC 4542): 8 µg/mL
- MIC Staphylococcus aureus-SMITH (GC 4543) (Staphylococcus sp.; broth dilution, strain GC 4543): 4 µg/mL
- MIC Staphylococcus aureus (GC 4544) (Staphylococcus sp.; broth dilution, strain GC 4544): 8 µg/mL
- MIC Staphylococcus aureus (GC 4545) (Staphylococcus sp.; broth dilution, strain GC 4545): 8 µg/mL
- MIC Staphylococcus haemolyticus (GC 4546) (Staphylococcus sp.; broth dilution, strain GC 4546): 8 µg/mL
- MIC Coagulase Negative Staphylococcus (GC 4547) (Staphylococcus sp.; broth dilution, strain GC 4547): 8 µg/mL
- MIC Coagulase Negative Staphylococcus (GC 4548) (Staphylococcus sp.; broth dilution, strain GC 4548): 2 µg/mL
- MIC Coagulase Negative Staphylococcus (GC 4549) (Staphylococcus sp.; broth dilution, strain GC 4549): 4 µg/mL
- MIC Coagulase Negative Staphylococcus (GC 4551) (Staphylococcus sp.; broth dilution, strain GC 4551): 4 µg/mL
- MIC Coagulase Negative Staphylococcus (ID-3941) (Staphylococcus sp.; broth dilution, strain ID-3941): 2 µg/mL
- MIC Streptococcus agalactiae (GC 4564) (Streptococcus sp.; Streptococcus agalactiae (GC 4564)): <0.5 µg/mL
- MIC Streptococcus pneumoniae (GC 4565) (Streptococcus sp.; Streptococcus pneumoniae (GC 4565)): <0.5 µg/mL
- MIC Streptococcus pyogenes (ID-3187) (Streptococcus sp.; Streptococcus pyogenes (ID-3187)): <0.5 µg/mL
- MIC Streptococcus agalactiae (GC 4564) (Streptococcus sp.; broth dilution, strain GC 4564): <0.5 µg/mL
- MIC Streptococcus pneumoniae (GC 4565) (Streptococcus sp.; broth dilution, strain GC 4565): <0.5 µg/mL
- MIC Streptococcus pyogenes (ID-3187) (Streptococcus sp.; broth dilution, strain ID-3187): <0.5 µg/mL
